# Ends that are not written are not given here.
# What was measured:
# pmaxGFP plasmid DNA [1] = assay: DNA-band shift of plasmid DNA with positively charged peptides and peptide-NLS in Opti-MEM (FIGS. 3 and 4); format: binding; conditions: 90 ng or 135 ng DNA, various peptide amounts in Opti-MEM, 20° C., 30 min; comparison between peptides
# Protocol: Plasmid DNA (90 ng per sample) was incubated with different amounts (numbers above each lane indicate pico-mole amounts per sample) of positively charged peptides (see list of peptide sequences for details) in Opti-MEM as described below.
# Several positively charged peptides, as well as positively charged peptides bearing a positively charged NLS (NLS1) or a neutral NLS (NLS2) were tested for their ability to complex DNA and form higher aggregates, visible as shifts of the electrophoretic mobility of the DNA.
# Peptides were synthesized by F-moc-chemistry and HPLC-purified to 95% purity. The carboxyl-group at the C-terminus was amidated and the N-terminal amino-group was actylated, in order to eliminate additional charges. U represents the spacer molecule 8-amino-3,6-dioxaoctanoic acid (UUU (U3) represents a trimer of U):
# Lyophilized peptides, provided by supplier, were dissolved in distilled water to 0.1 mM. DNA was pmaxGFP plasmid DNA, 3.7 kb size (amaxa AG, Cologne), dissolved in water at 1 mg/ml. The plasmid encodes a green fluorescent protein (GFP).
# For DNA-band shift experiments 90 ng or 135 ng DNA, resp., were incubated with various amounts of peptide (indicated in the figure) in Opti-MEM (Invitrogen) in a total volume of 60 μl or 90 μl, resp., at 20° C. for 30 min. Loading dye was added before each sample was filled into a slot of a 0.6% agarose gel (40 mM Tris-acetate/1 mM EDTA as running buffer, pH 8.0). Electrophoresis was run at 90V for 120 min.
# P=90 ng plasmid DNA without peptide M=kb marker (bands indicating 0.5, 1, 1.5, 2, 3, 4, 5, 6, 8, and 10 kb).
# The gel was stained with Ethidiumbromide for 10 min, then documented using a BioRad Gel-Doc System.
# With increasing amounts of peptide the DNA band is gradually shifting, indicating decreased electrophoretic mobility due to higher molecular size of the peptide-DNA complexes and due to decrease in negative charge of the DNA compensated by the positively charged peptides. As the concentration of the peptide further increases, the molecular weight of the complexes increases as well. The complexes are therefore hardly moving into the gel, the bands appear right below the loading slot. The plasmid DNA is represented by two bands in the gel, one dominant band of super-coiled slightly above 2 kb, and a weaker band between 3 and 4 kb showing the relaxed plasmid DNA.
# [2] = test system: Human Umbilical Vein Endothelial Cells (HUVEC); assay: Transfection of HUVEC with ExGen500 and peptide-NLS, GFP expression by flow cytometry; format: cell-based; conditions: for change of transfection efficiency (in words): FIG. 5 and FIG. 6; for transfection efficiency (percentage of GFP-positive cells of all viable cells): ExGen500, 1.5 μg DNA, 24 hours post transfection
# Protocol: (§1) Cells were grown and seeded as described below. FACS data of duplicate samples are shown.
# Cells were grown and seeded as described below. Mean values of the duplicate samples are shown.
# (§2) Human Umbilical Vein Endothelial Cells (HUVEC, from LONZA) were grown in EGM-2 medium (Bullet Kit, LONZA) and seeded in 12-well plates one day before transfection at a density of 1.2×10^5 cells per well in 1 ml EGM-2 medium (LONZA).
# (§3) Transfection reagents were ExGen500 (Fermentas) and HiFect (amaxa) used according to manufacturer's protocols. Plasmid-DNA (1.5 μg), coding for green fluorescent protein (pmaxGFP, amaxa) was complexed with peptides (amounts as indicated in the figures) for 30 min at room temperature prior to mixing with transfection reagent.
# For transfection with ExGen500 complex formation was done in 30 μl 150 mM NaCl solution. These preformed DNA-peptide complexes were added to transfection reagent (diluted in Opti-MEM or 150 mM NaCl according to manufacturer's protocols) and incubated.
# (§4) Complete transfection samples were added to HUVEC in Opti-MEM, incubated for 1 h at 37° C./5% CO2 in a humidified incubator. Medium was aspirated, cells washed with PBS twice. Fresh medium was added, and cells were incubated for another 23 h, then prepared for flow cytometry. To differentiated PC12 transfection samples were added in Opti-MEM, incubated for 1 h. After supernatant was removed fresh medium was added. Expression of maxGFP was measured by flow cytometry and expressed as transfection efficiency (percentage of GFP-positive cells of all viable cells) and X-mean (mean fluorescent intensity of the cells) 24 h after transfection (HUVEC), 48 h or 72 h after transfection in the case of PC12.
# [3] = test system: neuronally differentiated PC12 cells; assay: Transfection of neuronally differentiated PC12 cells with HiFect and peptide-NLS, GFP expression by flow cytometry; format: cell-based; conditions: differentiated PC12, HiFect, 1 μg DNA
# Protocol: (§5) Cells were grown and seeded as described below. FACS data of mean values of the duplicate samples are shown.
# PC12 cells (from ATCC) were grown in F-12K medium (ATCC) with 15% horse serum (Gibco) and 2.5% foetal calf serum (ATCC). Cells were seeded in 12-well plates; 5×10^4 coated with collagen (from rat tail (SIGMA), 60 μg per well, dissolved in 0.005% acetic acid/30% ethanol at 60 μg per ml). After one day of culture nerve growth factor (NGF-β from SIGMA, 100 ng/ml final concentration) was added to differentiate neuronal cells. 7 days after start of differentiation, cells were used for transfection.
# Transfection reagents were ExGen500 (Fermentas) and HiFect (amaxa) used according to manufacturer's protocols. […]
# (§6) For transfection with HiFect complex formation of DNA and peptide was done in 250 μl Opti-MEM (Invitrogen) for each sample.
# as §4, with “To differentiated PC12 transfection samples were added in Opti-MEM, incubated for 1 h. After supernatant was removed fresh medium was added.” left out, “PC12. […]” for “PC12.”
# [4] = test system: Human Umbilical Vein Endothelial Cells (HUVEC); assay: Transfection of HUVEC with HiFect and peptide-NLS, GFP expression by flow cytometry; format: cell-based; conditions: HiFect, 1.5 μg DNA, 24 hours post transfection, FIG. 8 and FIG. 9
# Protocol: as §1, §5, §2, §3, §6
# as §4, with “Fresh medium was added, and cells were incubated for another 23 h, then prepared for flow cytometry. To differentiated PC12 transfection samples were added in Opti-MEM, incubated for 1 h. After supernatant was removed fresh medium was added.” left out
# pmaxGFP plasmid DNA [5] = assay: Electrophoretic mobility shift assay in agarose gel, NLS peptides in water (FIG. 1); format: binding; conditions: 1 μg DNA with μg amounts of peptide in water, 20 μl, 20° C., 30 min; 0.6% agarose gel
# Protocol: 1 μg DNA was incubated with peptide (μg amounts as indicated in the figure) in water in a total volume of 20 μl at 20° C. for 30 min. After that loading dye was added, each sample filled into a slot of a 0.6% agarose gel (Tris-acetate/EDTA as running buffer, pH 8.5). Electrophoresis was run at 90V for 120 min. P=1 μg plasmid DNA without peptide. M=kb marker (bands indicating 1.5, 2, 3, 4, 5, and 6 kb). The gel was stained with Ethidiumbromide for 10 min, then documented using a BioRad Gel-Doc System.
# DNA interacting unspecifically with peptides through positively charged amino acids may mask positively charged nuclear localisation sequences (NLS) and interfere with their function in nuclear transport.
# Peptides were synthesized by F-moc-Chemistry and HPLC-purified to 95% purity. The carboxyl-group at the C-terminus was amidated and the N-terminal amino-group was actylated, in order to eliminate additional charges.
# DNA was pmaxGFP plasmid DNA ([…] size).
# (§7) The NLS on the NLS-1 peptide may be masked and altered in its capacity to mediate nuclear translocation, whereas all other peptides are still functioning in nuclear import.
# pmaxGFP plasmid DNA [6] = assay: Electrophoretic mobility shift assay in agarose gel, peptides with different positive net charges (FIG. 2); format: binding; conditions: 1 μg DNA with 1 nM peptide in water, 20 μl, 20° C., 30 min; 0.6% agarose gel
# Protocol: 1 μg DNA was incubated with 1 nM peptide in water in a total volume of 20 μl at 20° C. for 30 min. After that loading dye was added, each sample filled into a slot of a 0.6% agarose gel (Tris-acetate/EDTA as running buffer, pH 8.5). Electrophoresis was run at 90V for 120 min. P=1 μg plasmid DNA without peptide. M=kb marker (bands indicating 1.5, 2, 3, 4, 5, and 6 kb). The gel was stained with Ethidiumbromide for 10 min, then documented using a BioRad Gel-Doc System.
# DNA interacting unspecifically with peptides through positively charged amino acids may mask positively charged nuclear localisation sequences (NLS) and interfere with their function in nuclear transport. […] Peptides were designed with different positive net charges, 5+, 4+, 3+, 2+, 0±, by exchanging neutral amino acids for acidic ones or vice versa acidic for neutral amino acids
# Peptides were synthesized by F-moc-chemistry and HPLC-purified to 95% purity. The carboxyl-group at the C-terminus was amidated and the N-terminal amino-group was actylated, in order to eliminate additional charges.
# as §7
substance,measurement,setting,value
RKKRK RKKRK RKKRK RKKRK-UUU-GSGSP KKKRK VGSG [RKK20U3-NLS1],peptide amount needed to form a high molecular weight complex / total band shift,pmaxGFP plasmid DNA [1],does not behave much differently to the RKK20GGGS peptide
same,change of transfection efficiency (in words),"[2]; ExGen500, 24 h",increase is higher for the NLS2-peptide than for the NLS1-bearing peptide
KKKKK KKKKK KKKKK K-UUU (Ac-KKKKKKKKKKKKKKKK; not fully specified (C-terminus); printed as KKKKK KKKKK KKKKK K-UUU) [K16U3],peptide amount needed to form a high molecular weight complex / total band shift,pmaxGFP plasmid DNA [1],form a high molecular weight complex (i.e. no migration into the gel) at the same concentrations
same,transfection efficiency (percentage of GFP-positive cells of all viable cells),[2]; FIG. 5,49.5%
same,change of transfection efficiency (in words),"[2]; ExGen500, 24 h",decreasing transfection efficiency
KKKKK KKKKK KKKKK K-UUU-EEDTP PKKKR KVED [K16U3-NLS2],transfection efficiency (percentage of GFP-positive cells of all viable cells),[2]; FIG. 5,69%
same,"increase of transfection efficiency, factor","[2]; ExGen500, 24 h, compared to peptide K16U3 without NLS, FIG. 5",1.4
same,"maximum increase in transfection efficiency, factor","[3]; 72 hours post transfection, compared to HiFect without peptide, FIG. 10",2.6
KKKKK KKKKK KKKKK KGGGS (Ac-KKKKKKKKKKKKKKKKGGGS-NH2) [K16GGGS],peptide amount needed to form a high molecular weight complex / total band shift,pmaxGFP plasmid DNA [1],form a high molecular weight complex (i.e. no migration into the gel) at the same concentrations
RKKRK RKKRK RKKRK RKKRK-UUU-EEDTP PKKKR KVED [RKK20U3-NLS2],peptide amount needed to form a high molecular weight complex / total band shift,pmaxGFP plasmid DNA [1],seems to increase the peptide amount necessary for a total band shift
same,"increase in transfection efficiency, factor","[2]; ExGen500, 24 h, compared to DNA transfected without any peptide or complexed with RKK20GGGS peptide without NLS, FIG. 6",1.2
same,peptide amount sufficient for increase in transfection efficiency (in words),"[2]; ExGen500, FIG. 5 versus FIG. 6",lower amount of RKKU3-NLS2 than of K16U3-NLS2 is sufficient
same,"increase in transfection efficiency, factor",[4],2
KKKKKKKKKKKKKKKKKKKKKKKKKGGGS (KKKKKKKKKKKKKKKKKKKKKKKKKGGGS; DNA-anchoring peptide) [K25GGGS],peptide amount needed to form a high molecular weight complex / total band shift,pmaxGFP plasmid DNA [1],cause a total shift to decreased electrophoretic mobility at lower peptide amounts than K16GGGS and K16U3
RKKRK RKKRK RKKRK RKKRK-PEG27- EEDTP PKKKR KVED [RKK20-PEG27-NLS2],peptide amount needed to form a high molecular weight complex / total band shift,pmaxGFP plasmid DNA [1],behaves similarly
same,"increase in transfection efficiency, factor","[2]; ExGen500, 24 h, FIG. 7, comparator not stated",1.2
same,"increase in transfection efficiency, factor",[4],1.5
same,"maximum increase in transfection efficiency, factor","[3]; compared to peptide RKK20 without NLS, 200 pmol resp., FIG. 11",2.8
RKKRKRKKRKRKKRKRKKRKGGGS (Ac-RKKRKRKKRKRKKRKRKKRKGGGS-NH2) [RKK20GGGS],peptide amount needed to form a high molecular weight complex / total band shift,pmaxGFP plasmid DNA [1],cause a total shift to decreased electrophoretic mobility at lower peptide amounts than K16GGGS and K16U3
"GSGSPKKKRKVGSG (Ac-GSGSPKKKRKVGSG-NH2) [NLS-1, SV40 large T-antigen core NLS with glycine and serine flanks]","alteration of the electrophoretic mobility of DNA (binding to DNA, aggregates)",pmaxGFP plasmid DNA [5],does bind to DNA and forms aggregates
same,"alteration of the electrophoretic mobility of DNA (binding to DNA, aggregates)",pmaxGFP plasmid DNA [6],do bind to DNA and form aggregates
KKKKK KKKKK KKKKK K-UUU-GSGSP KKKRK VGSG [K16U3-NLS1],change of transfection efficiency (in words),"[2]; ExGen500, 24 h",increase of transfection efficiency is less distinctive

# — patent US20090253206A1, “NUCLEAR TRANSPORT AGENT AND METHOD FOR PRODUCING SAID AGENT” (LONZA COLOGNE AG, priority 2006, published 2009)
